Test system in one data set: not listed separately
The experiment in a line: In vitro metabolism in mouse and human liver microsomes and cytosols (metabolite profiling, GSH/KCN trapping). Format: in vitro ADME. The following applies: 10 μM, 1 h, mouse and human liver cytosol.
Turning to `C[C@@H]1CNC[C@H](C)N1c1ccc(-c2cnc3c(-c4ccnc5ccccc45)cnn3c2)cc1` [compound 2, 4-(6-(4-((2R,6S)-2,6-dimethylpiperazin-1-yl)phenyl)pyrazolo[1,5-a]pyrimidin-3-yl)quinoline], the “cytosolic (aldehyde oxidase-mediated) metabolism” value is reported as “oxidation of the alpha-carbon of quinoline nitrogen, leading to M450c”.

Regarding `c1ccc2c(-c3cnn4cc(-c5ccc(C6CCNCC6)cc5)cnc34)ccnc2c1` [compound 48], the “cytosolic (aldehyde oxidase-mediated) metabolism” value is recorded as “metabolized mainly through the oxidation of the quinoline ring”.

Still in this data set, the particulars now being: mouse and human liver microsomes + NADPH + GSH.
`c1ccc2c(-c3cnn4cc(-c5ccc(C6CCNCC6)cc5)cnc34)ccnc2c1` [compound 48]: the “GSH trapping of reactive intermediate” value was “Reactive intermediates that could be trapped by KCN or GSH were not observed”.

The data set is the same for the next values; noted with them: mouse and human liver microsomes + NADPH + KCN.
For `c1ccc2c(-c3cnn4cc(-c5ccc(C6CCNCC6)cc5)cnc34)ccnc2c1` [compound 48], the “cyanide adducts (KCN trapping of reactive intermediate)” value was “no cyanide adducts observed”.

Still in this data set, the particulars now being: with UDPGA.
For the compound `C[C@@H]1CNC[C@H](C)N1c1ccc(-c2cnc3c(-c4ccnc5ccccc45)cnn3c2)cc1` [compound 2, 4-(6-(4-((2R,6S)-2,6-dimethylpiperazin-1-yl)phenyl)pyrazolo[1,5-a]pyrimidin-3-yl)quinoline], the glucuronide conjugates entry is “Glucuronide and GSH conjugates were not observed”.

As to `c1ccc2c(-c3cnn4cc(-c5ccc(C6CCNCC6)cc5)cnc34)ccnc2c1` [compound 48], the glucuronide conjugates result is reported as “The glucuronide conjugate was not observed”.

The target in the next data set is human ALK2 (Homo sapiens (Human), UniProt Q04771). The experiment in a line: LANCE Ultra ULight enzymatic assay (FOP Enzymatic Assay), ALK2. Format: biochemical.
human ALK2, sequence (Q04771 21-509): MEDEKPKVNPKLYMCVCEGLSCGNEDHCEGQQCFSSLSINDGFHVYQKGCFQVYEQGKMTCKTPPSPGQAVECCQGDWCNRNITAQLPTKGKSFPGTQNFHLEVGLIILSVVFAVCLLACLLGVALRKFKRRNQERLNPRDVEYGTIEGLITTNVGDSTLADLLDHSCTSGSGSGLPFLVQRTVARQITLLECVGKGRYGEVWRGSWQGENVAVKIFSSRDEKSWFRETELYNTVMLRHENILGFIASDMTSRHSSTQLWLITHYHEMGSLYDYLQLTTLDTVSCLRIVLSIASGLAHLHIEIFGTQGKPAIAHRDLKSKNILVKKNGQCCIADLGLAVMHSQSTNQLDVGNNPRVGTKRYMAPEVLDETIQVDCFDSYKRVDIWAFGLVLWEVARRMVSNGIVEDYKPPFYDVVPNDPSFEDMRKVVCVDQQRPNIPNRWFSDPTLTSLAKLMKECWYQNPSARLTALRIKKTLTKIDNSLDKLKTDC
Details: not given
The compound `[2H]c1ccc2c(-c3cnn4cc(-c5ccc(N6[C@H](C)CNC[C@@H]6C)cc5)cnc34)cccc2n1` [Compound 53, 5-(6-(4-((2R,6S)-2,6-dimethylpiperazin-1-yl)phenyl)pyrazolo[1,5-a]pyrimidin-3-yl)2-^2H-quinoline] displayed an IC50 of 8 nM.

`[2H]c1cc(-c2cnn3cc(-c4ccc(N5CCNCC5)nc4)cnc23)c2ccccc2n1` [compound 17, 4-(6-(6-(piperazin-1-yl)pyridin-3-yl)pyrazolo[1,5-a]pyrimidin-3-yl)quinoline] showed an IC50 of 40 nM.

Staying with this data set, now noted: 10 μM ATP.
As to `[2H]c1ccc2c(-c3cnn4cc(-c5ccc(OCCN6CCCCC6)cn5)cnc34)cccc2n1` [Compound 47, 5-(6-(5-(2-(piperidin-1-yl)ethoxy)pyridin-2-yl)pyrazolo[1,5-a]pyrimidin-3-yl)-2-^2H-quinoline], the IC50 came to 94 nM.

With `[2H]c1ccc2c(-c3cnn4cc(-c5ccc(OC(C)(C)CN6CCCCC6)cn5)cnc34)cccc2n1` [Compound 57, 5-(6-(5-((2-methyl-1-(piperidin-1-yl)propan-2-yl)oxy)pyridin-2-yl)pyrazolo[1,5-a]pyrimidin-3-yl)-2-^2H-quinoline], the IC50 was 28 nM.

`[2H]c1ccc2c(-c3cnn4cc(-c5ccc(OC6CCN(C)CC6)cn5)cnc34)cccc2n1` [Compound 59, 5-(6-(5-((1-methylpiperidin-4-yl)oxy)pyridin-2-yl)pyrazolo[1,5-a]pyrimidin-3-yl)-2-^2H-quinoline] yielded an IC50 of 43 nM.

For `[2H]c1ccc2c(-c3cnn4cc(-c5ccc(OC6CCNCC6)cn5)cnc34)cccc2n1` [Compound 61, 5-(6-(5-(piperidin-4-yloxy)pyridin-2-yl)pyrazolo[1,5-a]pyrimidin-3-yl)-2-^2H-quinoline], the IC50 worked out at 41 nM.

As to `[2H]c1ccc2c(-c3cnn4cc(-c5ccc(O[C@@H]6CCNC6)cn5)cnc34)cccc2n1` [Compound 63, (R)-5-(6-(5-(pyrrolidin-3-yloxy)pyridin-2-yl)pyrazolo[1,5-a]pyrimidin-3-yl)-2-^2H-quinoline], the IC50 came out at 45 nM.

Compound `[2H]c1ccc2c(-c3cnn4cc(-c5ccc(O[C@H]6CCNC6)cn5)cnc34)cccc2n1` [Compound 65, (S)-5-(6-(5-(pyrrolidin-3-yloxy)pyridin-2-yl)pyrazolo[1,5-a]pyrimidin-3-yl)-2-^2H-quinoline] yielded an IC50 of 34 nM.

`[2H]c1ccc2c(-c3cnn4cc(-c5ccc(OCCN6CCNCC6)cn5)cnc34)cccc2n1` [compound 49, 5-(6-(5-(2-(piperazin-1-yl)ethoxy)pyridin-2-yl)pyrazolo[1,5-a]pyrimidin-3-yl)-2-^2H-quinoline] yielded an IC50 of 157 nM.

The data set is the same for the next values; noted with them: read-out: ALK2 IC50 (nM) at 10 μM ATP; 10 μM ATP.
For the compound `Clc1cc(-c2cnc3c(-c4ccnc5ccccc45)cnn3c2)ccc1N1CCNCC1` [Compound 35, 4-(6-(3-chloro-4-(piperazin-1-yl)phenyl)pyrazolo[1,5-a]pyrimidin-3-yl)quinoline], the IC50 stood at 30 nM.

For `Clc1cc(-c2cnc3c(-c4cccc5ncccc45)cnn3c2)ccc1N1CCNCC1` [Compound 36, 5-(6-(3-chloro-4-(piperazin-1-yl)phenyl)pyrazolo[1,5-a]pyrimidin-3-yl)quinoline], the IC50 was determined as 46 nM.

Consider `N#Cc1cc(-c2cnc3c(-c4ccnc5ccccc45)cnn3c2)ccc1N1CCNCC1` [Compound 37, 2-(piperazin-1-yl)-5-(3-(quinolin-4-yl)pyrazolo[1,5-a]pyrimidin-6-yl)benzonitrile], for which the IC50 was found to be 24 nM.

For the compound `N#Cc1cc(-c2cnc3c(-c4cccc5ncccc45)cnn3c2)ccc1N1CCNCC1` [Compound 38], the IC50 amounted to 47 nM.

Take `Fc1cc(-c2cnc3c(-c4ccnc5ccccc45)cnn3c2)ccc1N1CCNCC1` [Compound 39]: the IC50 was 15 nM.

`Fc1cc(-c2cnc3c(-c4cccc5ncccc45)cnn3c2)ccc1N1CCNCC1` [Compound 40]: the IC50 stood at 32 nM.

Consider `c1ccc2c(-c3cnn4cc(-c5ccc(OCCN6CCNCC6)nc5)cnc34)ccnc2c1` [Compound 41, 4-(6-(6-(2-(piperazin-1-yl)ethoxy)pyridin-3-yl)pyrazolo[1,5-a]pyrimidin-3-yl)quinoline], for which the IC50 was 22 nM.

Regarding `c1cc(-c2cnn3cc(-c4ccc(OCCN5CCNCC5)nc4)cnc23)c2cccnc2c1` [Compound 42, 5-(6-(6-(2-(piperazin-1-yl)ethoxy)pyridin-3-yl)pyrazolo[1,5-a]pyrimidin-3-yl)quinoline], the IC50 stood at 14 nM.

As for `CN1CCN(CCOc2ccc(-c3cnc4c(-c5ccnc6ccccc56)cnn4c3)cn2)CC1` [Compound 43, 4-(6-(6-(2-(4-methylpiperazin-1-yl)ethoxy)pyridin-3-yl)pyrazolo[1,5-a]pyrimidin-3-yl)quinoline], the IC50 was 122 nM.

Regarding `CN1CCN(CCOc2ccc(-c3cnc4c(-c5cccc6ncccc56)cnn4c3)cn2)CC1` [Compound 44, 5-(6-(6-(2-(4-methylpiperazin-1-yl)ethoxy)pyridin-3-yl)pyrazolo[1,5-a]pyrimidin-3-yl)quinoline], the IC50 amounted to 17 nM.

Regarding `Clc1cc(-c2cnc3c(-c4ccnc5ccccc45)cnn3c2)ccc1OCCN1CCCCC1` [Compound 45, 4-(6-(3-chloro-4-(2-(piperidin-1-yl)ethoxy)phenyl)pyrazolo[1,5-a]pyrimidin-3-yl)quinoline], the IC50 amounted to 56 nM.

In the case of `Clc1cc(-c2cnc3c(-c4cccc5ncccc45)cnn3c2)ccc1OCCN1CCCCC1` [Compound 46], the IC50 came to 16 nM.

Consider `Cc1ccc2c(-c3cnn4cc(-c5ccc(OCCN6CCNCC6)cn5)cnc34)cccc2n1` [Compound 50, 2-methyl-5-(6-(5-(2-(piperazin-1-yl)ethoxy)pyridin-2-yl)pyrazolo[1,5-a]pyrimidin-3-yl)quinoline], for which the IC50 stood at 643 nM.

As to `Cc1ccc2c(-c3cnn4cc(-c5ccc(N6[C@H](C)CNC[C@@H]6C)cc5)cnc34)cccc2n1` [Compound 54, 5-(6-(4-((2R,6S)-2,6-dimethylpiperazin-1-yl)phenyl)pyrazolo[1,5-a]pyrimidin-3-yl)-2-methylquinoline], the IC50 is 32 nM.

In the case of `Cc1ccc2c(-c3cnn4cc(-c5ccc(OCCN6CCOCC6)cn5)cnc34)cccc2n1` [Compound 56, 4-(2-((6-(3-(2-methylquinolin-5-yl)pyrazolo[1,5-a]pyrimidin-6-yl)pyridin-3-yl)oxy)ethyl)morpholine], the IC50 amounted to 562 nM.

On to `Cc1ccc2c(-c3cnn4cc(-c5ccc(OC(C)(C)CN6CCCCC6)cn5)cnc34)cccc2n1` [Compound 58, 2-methyl-5-(6-(5-((2-methyl-1-(piperidin-1-yl)propan-2-yl)oxy)pyridin-2-yl)pyrazolo[1,5-a]pyrimidin-3-yl)quinoline], for which the IC50 amounted to 107 nM.

In the case of `Cc1ccc2c(-c3cnn4cc(-c5ccc(OC6CCN(C)CC6)cn5)cnc34)cccc2n1` [Compound 60, 2-methyl-5-(6-(5-((1-methylpiperidin-4-yl)oxy)pyridin-2-yl)pyrazolo[1,5-a]pyrimidin-3-yl)quinoline], the IC50 was 155 nM.

Consider `Cc1ccc2c(-c3cnn4cc(-c5ccc(OC6CCNCC6)cn5)cnc34)cccc2n1` [Compound 62, 2-methyl-5-(6-(5-(piperidin-4-yloxy)pyridin-2-yl)pyrazolo[1,5-a]pyrimidin-3-yl)quinoline], for which the IC50 was 180 nM.

`Cc1ccc2c(-c3cnn4cc(-c5ccc(O[C@@H]6CCNC6)cn5)cnc34)cccc2n1` [Compound 64, (R)-2-methyl-5-(6-(5-(pyrrolidin-3-yloxy)pyridin-2-yl)pyrazolo[1,5-a]pyrimidin-3-yl)quinoline]: the IC50 came out at 276 nM.

Regarding `Cc1ccc2c(-c3cnn4cc(-c5ccc(O[C@H]6CCNC6)cn5)cnc34)cccc2n1` [Compound 66, (S)-2-methyl-5-(6-(5-(pyrrolidin-3-yloxy)pyridin-2-yl)pyrazolo[1,5-a]pyrimidin-3-yl)quinoline], the IC50 worked out at 102 nM.

Regarding `COc1ccc2c(-c3cnn4cc(-c5ccc(N6[C@H](C)CNC[C@@H]6C)cc5)cnc34)cccc2n1` [Compound 67, 5-(6-(4-((2S,6R)-2,6-dimethylpiperazin-1-yl)phenyl)pyrazolo[1,5-a]pyrimidin-3-yl)-2-methoxyquinoline], the IC50 amounted to 157 nM.

As to `C[C@@H]1CNC[C@H](C)N1c1ccc(-c2cnc3c(-c4cccc5[nH]c(=O)ccc45)cnn3c2)cc1` [Compound 68, 5-(6-(4-((2S,6R)-2,6-dimethylpiperazin-1-yl)phenyl)pyrazolo[1,5-a]pyrimidin-3-yl)quinolin-2(1H)-one], the IC50 was 66 nM.

In the case of `c1ccc2c(-c3cnn4cc(-c5ccc(N6CCNCC6)nc5)cnc34)ccnc2c1` [compound 1, 4-(6-(6-(piperazin-1-yl)pyridin-3-yl)pyrazolo[1,5-a]pyrimidin-3-yl)quinoline], the IC50 came to 29 nM.

Regarding `c1ccc2c(-c3cnn4cc(-c5ccc(C6CCNCC6)cc5)cnc34)ccnc2c1` [compound 48], the IC50 came out at 677 nM.

The data set is the same for the next values; noted with them: read-out: potency in ALK2 LANCE assay.
As for `O=c1cc(-c2cnn3cc(-c4ccc(N5CCNCC5)cc4)cnc23)c2ccccc2[nH]1` [M422c, 4-(6-(4-(piperazin-1-yl)phenyl)pyrazolo[1,5-a]pyrimidin-3-yl)quinolin-2(1H)-one], the IC50 stood at 800 nM.

The record behind these values is patent US9682983B2, “BMP inhibitors and methods of use thereof” (THE BRIGHAM AND WOMEN'S HOSPITAL, INC., priority 2013, dated 2017).
